Test results: the supplement of paper PMC4862054

Legend:
Settings in all cases: incubation time: 72 h
[1] = system: HCC1143; test: normalised response (% of control), CellTiter-Glo; higher = more viable cells (100 = DMSO, 0 = benzethonium chloride kill control)
Procedure: (§1)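 DSRT, 72 h incubation, CellTox Green / CellTiter-Glo readout. Signal is normalised to DMSO and benzethonium chloride controls. Value is the normalised response at dose 3.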

[2] = system: CAL-148; test: as above
Procedure: as §1

[3] = system: MDA-MB-436; test: as above
Procedure: as §1

[4] = system: BT-549; test: as above
Procedure: as §1

[5] = system: MDA-MB-231; test: as above
Procedure: as §1

[6] = system: MCF-10A; test: as above
Procedure: as §1

[7] = system: CAL-85-1; test: as above
Procedure: as §1

[8] = system: HCC1599; test: as above
Procedure: as §1

[9] = system: MDA-MB-453; test: as above
Procedure: as §1

[10] = system: DU-4475; test: as above
Procedure: as §1

[11] = system: HCC1937; test: as above
Procedure: as §1

[12] = system: CAL-51; test: as above
Procedure: as §1

[13] = system: Hs578T; test: as above
Procedure: as §1

[14] = system: CAL-120; test: as above
Procedure: as §1

[15] = system: MDA-MB-468; test: as above
Procedure: as §1

[16] = system: MFM-223; test: as above
Procedure: as §1

[17] = system: HDQ-P1; test: as above
Procedure: as §1

[18] = system: SK-BR-3; test: as above
Procedure: as §1

[19] = system: BT-474; test: as above
Procedure: as §1

[20] = system: HCC1143; test: normalised response (% of control), CellTox Green; higher = less cell death (100 = DMSO, 0 = benzethonium chloride kill control)
How it was run: (§2)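 Breast cancer cell lines (20 µl suspension) were seeded into 384-well plates holding compound at 5 concentrations in 10-fold steps over a compound-specific 10,000-fold range, then incubated 72 h. CellTox Green fluorescence (485/520 nm) was read first, then CellTiter-Glo luminescence after 10 min at room temperature. Each plate was normalised to 0.1 % DMSO (100) and a positive kill control (0). Each value is the normalised signal at a single concentration of the series.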

[21] = system: CAL-148; test: as above
How it was run: as §2

[22] = system: MDA-MB-436; test: as above
How it was run: as §2

[23] = system: BT-549; test: as above
How it was run: as §2

[24] = system: MDA-MB-231; test: as above
How it was run: as §2

[25] = system: MCF-10A; test: as above
How it was run: as §2

[26] = system: CAL-85-1; test: as above
How it was run: as §2

[27] = system: HCC1599; test: as above
How it was run: as §2

[28] = system: MDA-MB-453; test: as above
How it was run: as §2

[29] = system: DU-4475; test: as above
How it was run: as §2

[30] = system: HCC1937; test: as above
How it was run: as §2

[31] = system: CAL-51; test: as above
How it was run: as §2

[32] = system: CAL-120; test: as above
How it was run: as §2

[33] = system: MDA-MB-468; test: as above
How it was run: as §2

[34] = system: BT-474; test: as above
How it was run: as §2

[35] = system: HCC1143; test: normalised response (% of control), CellTiter-Glo; higher = more viable cells (100 = DMSO, 0 = benzethonium chloride kill control); remark: listed apart in the source
How it was run: as §2

[36] = system: CAL-148; test: as above; remark: listed apart in the source
How it was run: as §2

[37] = system: MDA-MB-436; test: as above; remark: listed apart in the source
How it was run: as §2

[38] = system: BT-549; test: as above; remark: listed apart in the source
How it was run: as §2

[39] = system: MDA-MB-231; test: as above; remark: listed apart in the source
How it was run: as §2

[40] = system: MCF-10A; test: as above; remark: listed apart in the source
How it was run: as §2

[41] = system: CAL-85-1; test: as above; remark: listed apart in the source
How it was run: as §2

[42] = system: HCC1599; test: as above; remark: listed apart in the source
How it was run: as §2

[43] = system: MDA-MB-453; test: as above; remark: listed apart in the source
How it was run: as §2

[44] = system: DU-4475; test: as above; remark: listed apart in the source
How it was run: as §2

[45] = system: HCC1937; test: as above; remark: listed apart in the source
How it was run: as §2

[46] = system: CAL-51; test: as above; remark: listed apart in the source
How it was run: as §2

[47] = system: Hs578T; test: as above; remark: listed apart in the source
How it was run: as §2

[48] = system: CAL-120; test: as above; remark: listed apart in the source
How it was run: as §2

[49] = system: MDA-MB-468; test: as above; remark: listed apart in the source
How it was run: as §2

[50] = system: MFM-223; test: as above; remark: listed apart in the source
How it was run: as §2

[51] = system: HDQ-P1; test: as above; remark: listed apart in the source
How it was run: as §2

[52] = system: SK-BR-3; test: as above; remark: listed apart in the source
How it was run: as §2

[53] = system: BT-474; test: as above; remark: listed apart in the source
How it was run: as §2

[54] = system: Hs578T; test: normalised response (% of control), CellTox Green; higher = less cell death (100 = DMSO, 0 = benzethonium chloride kill control)
How it was run: as §2

[55] = system: MFM-223; test: as above
How it was run: as §2

[56] = system: HDQ-P1; test: as above
How it was run: as §2

Compound | normalised response [20] [%] | normalised response [21] [%] | normalised response [22] [%] | normalised response [23] [%] | normalised response [24] [%] | normalised response [25] [%] | normalised response [26] [%] | normalised response [27] [%] | normalised response [28] [%] | normalised response [29] [%] | normalised response [30] [%] | normalised response [31] [%] | normalised response [32] [%] | normalised response [33] [%] | normalised response [34] [%] | normalised response [35] [%] | normalised response [36] [%] | normalised response [37] [%] | normalised response [38] [%] | normalised response [39] [%] | further results
O=C(c1ccc(C(=O)N2CCC(N3CCCC3)CC2)c(Nc2ccccc2)c1)N1CCC(N2CCCC2)CC1 [UNC1215] (300 nM) | 93.9 | 104 | 65.3 | 94.4 | 90.9 | 86.4 | 98.7 | 93.7 | 100 | 101 | 85.9 | 77.2 | 101 | 129 | 101 |  |  |  |  |  | normalised response [1]: 95%; normalised response [2]: 93.6%; normalised response [3]: 99.7%; normalised response [4]: 96.7%; normalised response [5]: 99.1%; normalised response [6]: 94.5%; normalised response [7]: 99.5%; normalised response [8]: 93.2%; normalised response [9]: 104%; normalised response [10]: 99.5%; normalised response [11]: 92.7%; normalised response [12]: 62.6%; normalised response [13]: 98%; normalised response [14]: 96.7%; normalised response [15]: 90%; normalised response [16]: 97.7%; normalised response [17]: 97.6%; normalised response [18]: 94%; normalised response [19]: 98.3%
CN(C)C/C=C/C(=O)Nc1cc2c(Nc3ccc(F)c(Cl)c3)ncnc2cc1O[C@H]1CCOC1 [Afatinib] (100 nM) | 111 | 102 | 87 | 116 | 113 | 85.5 | 55.7 | 112 | 102 | 101 | 135 | 107 | 101 | 110 | 81.3 | 100 | 75.1 | 98 | 98.5 | 103 | normalised response [40]: 32.4%; normalised response [41]: 65.9%; normalised response [42]: 94.1%; normalised response [43]: 77.3%; normalised response [44]: 98.1%; normalised response [45]: 89.8%; normalised response [46]: 118%; normalised response [47]: 108%; normalised response [48]: 92.9%; normalised response [49]: 87.2%; normalised response [50]: 106%; normalised response [51]: 64%; normalised response [52]: 27.5%; normalised response [53]: 90.6%; normalised response [54]: 100%; normalised response [55]: 101%; normalised response [56]: 90.9%
COc1cc(Nc2ncc3c(n2)-c2ccc(Cl)cc2C(c2c(F)cccc2OC)=NC3)ccc1C(=O)O [Alisertib] (1000 nM) | 85.8 | 53.8 | 73.5 | 76.9 | 69.1 | 108 | 93.3 | 96.6 | 110 | 92.2 | 122 | 17.4 | 96.9 | 8.1 | 96 | 71.3 | 62.6 | 62 | 49.2 | 78 | normalised response [40]: 76.3%; normalised response [41]: 90.5%; normalised response [42]: 82.6%; normalised response [43]: 140%; normalised response [44]: 67.6%; normalised response [45]: 86.5%; normalised response [46]: 56.5%; normalised response [47]: 84.4%; normalised response [48]: 79.5%; normalised response [49]: 27.2%; normalised response [50]: 56.4%; normalised response [51]: 84.3%; normalised response [52]: 76%; normalised response [53]: 70.9%; normalised response [54]: 96.3%; normalised response [55]: 89.1%; normalised response [56]: 78.2%
CCN1CCN(c2ccc(Nc3cc(N(C)C(=O)Nc4c(Cl)c(OC)cc(OC)c4Cl)ncn3)cc2)CC1 [NVP-BGJ398] (100 nM) | 111 | 104 | 99.7 | 99.1 | 104 | 101 | 108 | 95.3 | 103 | 99.3 | 112 | 111 | 90.8 | 89.7 | 98.1 | 97.7 | 92.6 | 93.4 | 94.3 | 96.1 | normalised response [40]: 103%; normalised response [41]: 97.3%; normalised response [42]: 102%; normalised response [43]: 104%; normalised response [44]: 101%; normalised response [45]: 98.8%; normalised response [46]: 112%; normalised response [47]: 95.8%; normalised response [48]: 84.7%; normalised response [49]: 97.1%; normalised response [50]: 63.3%; normalised response [51]: 101%; normalised response [52]: 97.5%; normalised response [53]: 94.5%; normalised response [54]: 91%; normalised response [55]: 95.7%; normalised response [56]: 73%
CC(=O)O[C@]1(C(C)=O)CC[C@H]2[C@@H]3C=C(C)C4=CC(=O)CC[C@]4(C)[C@H]3CC[C@@]21C [Megestrol acetate] (1000 nM) | 116 | 104 | 57.4 | 108 | 110 | 103 | 104 | 96.8 | 105 | 99.1 | 58.1 | 115 | 101 | 141 | 97.6 | 103 | 92.4 | 101 | 109 | 118 | normalised response [40]: 121%; normalised response [41]: 100%; normalised response [42]: 111%; normalised response [43]: 95.8%; normalised response [44]: 102%; normalised response [45]: 110%; normalised response [46]: 124%; normalised response [47]: 105%; normalised response [48]: 98.2%; normalised response [49]: 95.4%; normalised response [50]: 96.6%; normalised response [51]: 104%; normalised response [52]: 93.8%; normalised response [53]: 111%; normalised response [54]: 98.8%; normalised response [55]: 101%; normalised response [56]: 106%
